The source of these data is patent US20100234278A1, “PROPHYLACTIC AND/OR THERAPEUTIC AGENTS FOR PERIPHERAL NEUROPATHY” (priority 2006, published 2010).

In data set [1] the test system is taxotere-induced peripheral neuropathy model mice. Description: Evaluation of neurological symptoms in taxotere-induced peripheral neuropathy model. In kind it is in vivo, ICR mice. Here is the method:
ICR mice (male) were purchased at 5 weeks of age and handled for 1 week before use in the experiment.
As an anticancer agent, taxotere (Taxotere injection, Aventis Pharma, 1V 80 mg 2 mL) was used.
Using the attached solution and physiological saline, taxotere was adjusted to a volume of about 0.15 ml per 10 g mouse body weight (45 mg/kg iv, 90 mg/kg ip). The vehicle serving as a control (0 mg/kg) was prepared in the same manner using Tween-80 and physiological saline for iv administration.
On the other hand, recombinant human EPO under the trade name Epogin (Chugai Pharmaceutical Co., Ltd., Japan) was adjusted using a solution (containing […] NaCl, 0.125% histidine-HCl and 0.005% Tween 80 in 10 mmol/L phosphate buffer (pH 6.0)) and administered at 720 U/head/week. The administration schedule was as follows: taxotere was given at 0 or 45 mg/kg iv (via the tail vein) or at 90 mg/kg ip, once a week for 3 weeks (3 times in total on days 0, 7 and 14), while the vehicle and EPO (720 U/head) were each given sc (into the dorsal neck region) 3 hours before taxotere treatment.
Continuous treatment with taxotere will induce typical hind leg crossing in mice when hanged by their tails. If the symptoms reach an advanced stage, the same crossing response will also occur in the forelegs, thereby leading to dysbasia. Such a symptom was used as an indicator to evaluate the mice as follows: 0=no symptom; 0.5=abnormal movement without clear flexion; 1=flexion in one hind leg; 2=hind leg flexion or extension lasting for 2 seconds or longer; 3=dysbasia. Scoring was accomplished by blind evaluation of symptoms.

In the next data set the test system is sciatic nerve axons. The data set is described as follows: Histopathological evaluation of sciatic nerves (toluidine blue staining). The data set is classed as in vivo, ICR mice. How it is done:
ICR mice (male) were purchased at 5 weeks of age and handled for 1 week before use in the experiment. As an anticancer agent, taxotere (Taxotere injection, Aventis Pharma, 1V 80 mg 2 mL) was used. […] The vehicle serving as a control (0 mg/kg) was prepared in the same manner using Tween-80 and physiological saline for iv administration. On the other hand, recombinant human EPO under the trade name Epogin (Chugai Pharmaceutical Co., Ltd., Japan) was adjusted using a solution (containing […] NaCl, 0.125% histidine-HCl and 0.005% Tween 80 in 10 mmol/L phosphate buffer (pH 6.0)) and administered at 720 U/head/week. The administration schedule was as follows: […], once a week for 3 weeks (3 times in total on days 0, 7 and 14), while the vehicle and EPO (720 U/head) were each given sc (into the dorsal neck region) 3 hours before taxotere treatment. Muscle tissue was peeled off to expose sciatic nerves. Under this state, a glutaraldehyde fixing solution (stored on ice immediately before use) was added to immerse all the sciatic nerves. After incubation for 10 minutes, the sciatic nerves were isolated and gently shaken for 1 hour in a shaker containing a glutaraldehyde fixing solution. The sciatic nerves were then embedded in a standard manner into a resin for electron microscopic examination. Toluidine blue-stained sections were prepared and evaluated for the degree of axonal degeneration at three levels: none (−), mild (+) and moderate (++).

Data set [2] concerns cisplatin-treated cancer patients. The settings on record: EPO-treated group (Mangiameli et al., 2002); cited from earlier work.
For data set [3], the system named is DRG (dorsal root ganglia). The settings on record: caused by addition of HIV envelop glycoprotein gp120 (Keswanai et al., 2004); cited from earlier work.
Data set [4] relates to streptozotocin-induced diabetes model rats. The note with it: streptozotocin-induced diabetes model rats (Bianchi et al., 2004); cited from earlier work.
The mark [5] stands for this setting: taxotere 90 mg/kg ip group (vehicle).

“Also recorded” adds a separate entry of the source.

Consider `CC(=O)O[C@@]12CO[C@@H]1C[C@H](O)[C@@]1(C)C(=O)[C@H](O)C3=C(C)[C@@H](OC(=O)[C@H](O)[C@@H](NC(=O)OC(C)(C)C)c4ccccc4)C[C@@](O)([C@@H](OC(=O)c4ccccc4)[C@H]21)C3(C)C` [taxotere], for which, in data set [1] (taxotere 45 mg/kg iv once a week), the “Time at which neurological symptoms developed after the treatment” value was “around 8 days”. The “Time at which neurological symptoms developed after the treatment” value in data set [1] (taxotere 90 mg/kg ip once a week) was “around 8 days”. The “Histological change of sciatic nerve axons, in words” value with sciatic nerve axons (groups receiving taxotere) is “diameter reduction and deformation of axons, which were indicative of clear axonal degeneration”. For the same molecule, in the data set with sciatic nerve axons (setting [5]), the “Degree of axonal degeneration: number of animals at mild (+)” value worked out at 1, the “Degree of axonal degeneration: number of animals at moderate (++)” value was found to be 3 and the “Degree of axonal degeneration: number of animals at ±” value is recorded as 3.
For the molecule erythropoietin [EPO], the Neurological symptom scores result in data set [2] is “significantly improved”. Moreover, in data set [3], the “Cell loss in DRG” value is reported as “prevents cell loss in DRG”. Moreover, the “Effect on neurological symptoms” value in data set [1] (neuropathy induced by taxotere 90 mg/kg ip, EPO 720 U/head sc, after 10 days (FIG. 2)) is on record as “reduce significantly the neurological symptoms; also recorded: tended to suppress exacerbation of neurological symptoms”. In data set [4], the Pain entry is recorded as “improves” and the “Reduced nerve conduction velocity” value was “improves reduced nerve conduction velocity”. Besides, the “Degeneration levels of sciatic nerve axons, range of the group” value in the data set with sciatic nerve axons (EPO group upon taxotere 90 mg/kg ip treatment) is “± to mild (+)”. For the same molecule, in the data set with sciatic nerve axons (EPO versus vehicle, taxotere 90 mg/kg ip), the “Effect on axonal degeneration of sciatic nerves, in words” value is recorded as “tendency to alleviate neuropathy; also recorded: tended to suppress exacerbation”.
